Laboratory results published in PubChem BioAssay (NCI).
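Assay format: 96-well plates, 48-hour exposure. Here, GI50 denotes the concentration required for 50% inhibition of growth. At the TGI there is no net growth.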

Experiments:
Experiment in all cases: inhibition of tumour cell growth, NCI panel, 48 h
[1] = test system: RXF 393 renal
[2] = test system: NCI-H226 lung
[3] = test system: SNB-19 CNS
[4] = test system: MDA-MB-435
[5] = test system: OVCAR-3 ovarian
[6] = test system: NCI/ADR-RES ovarian
[7] = test system: SF-539 CNS
[8] = test system: A498 renal
[9] = test system: HCC-2998 colon
[10] = test system: UACC-62 melanoma
[11] = test system: OVCAR-8 ovarian
[12] = test system: SK-OV-3 ovarian
[13] = test system: MCF7 breast
[14] = test system: SF-295 CNS
[15] = test system: T-47D breast
[16] = test system: MDA-MB-231 breast
[17] = test system: K-562 leukemia
[18] = test system: SF-268 CNS
[19] = test system: CAKI-1 renal
[20] = test system: UO-31 renal
[21] = test system: EKVX NSCLC
[22] = test system: 786-0 renal
[23] = test system: SK-MEL-28 melanoma
[24] = test system: BT-549 breast
[25] = test system: M14 melanoma
[26] = test system: NCI-H522 lung
[27] = test system: OVCAR-4 ovarian
[28] = test system: IGROV1 ovarian
[29] = test system: OVCAR-5 ovarian
[30] = test system: MALME-3M melanoma
[31] = test system: MDA-MB-468 breast
[32] = test system: TK-10 renal
[33] = test system: U251 CNS
[34] = test system: RPMI-8226 leukemia
[35] = test system: SW-620 colon
[36] = test system: HS 578T breast
[37] = test system: PC-3 prostate
[38] = test system: HT29 colon
[39] = test system: UACC-257 melanoma
[40] = test system: SN12C renal
[41] = test system: LOX IMVI melanoma
[42] = test system: HOP-62 NSCLC
[43] = test system: NCI-H460 lung
[44] = test system: ACHN renal
[45] = test system: HL-60(TB) leukemia
[46] = test system: NCI-H23 lung
[47] = test system: SR leukemia
[48] = test system: HCT-116 colon
[49] = test system: A549 NSCLC
[50] = test system: HCT-15 colon
[51] = test system: COLO 205 colon
[52] = test system: CCRF-CEM leukemia
[53] = test system: SK-MEL-5 melanoma
[54] = test system: DU-145 prostate
[55] = test system: HOP-92 NSCLC
[56] = test system: SK-MEL-2 melanoma
[57] = test system: MOLT-4 leukemia
[58] = test system: SNB-75 CNS
[59] = test system: KM12 colon

`COc1cc(/C=C/C(=O)c2ccc(S(=O)(=O)NCCNc3nc(Nc4ccc(F)cc4)nc(N(C)C)n3)cc2)cc(OC)c1OC` was tested, and the GI50 [1] was 1450 nM, the TGI [1] was 3.12 µM and the GI50 [2] was 4.47 µM. The TGI [2] was 31.9 µM, the GI50 [3] was 11.2 µM and the TGI [3] was 23.4 µM. The GI50 [4] was 2.8 µM, the TGI [4] was 7.68 µM and the GI50 [5] was 6.18 µM. It also gave a TGI [5] of 26.4 µM, a GI50 [6] of 3.38 µM and a TGI [6] of 13.4 µM. It also gave a GI50 [7] of 1710 nM, a TGI [7] of 3.18 µM and a GI50 [8] of 11.3 µM. It also gave a TGI [8] of 23.8 µM, a GI50 [9] of 1.62 µM and a TGI [9] of 3000 nM. The GI50 [10] was 8.28 µM, the TGI [10] was 21.4 µM and the GI50 [11] was 11.1 µM. The TGI [11] was 34.7 µM, the GI50 [12] was 21.8 µM and the TGI [12] was 58.9 µM. For the same compound, the GI50 [13] was 1.96 µM, the TGI [13] was 4.28 µM and the GI50 [14] was 2.16 µM. It also gave a TGI [14] of 4.73 µM, a GI50 [15] of 3.48 µM and a TGI [15] of 51.3 µM. The GI50 [16] was 4.41 µM, the TGI [16] was 21 µM and the GI50 [17] was 2730 nM. For the same compound, the TGI [17] was > 100 µM, the GI50 [18] was 11.7 µM and the TGI [18] was 63.7 µM. The GI50 [19] was 5.2 µM, the TGI [19] was 35.6 µM and the GI50 [20] was 4.45 µM. The TGI [20] was 17 µM, the GI50 [21] was 4.85 µM and the TGI [21] was 16.3 µM. It also gave a GI50 [22] of 2.94 µM, a TGI [22] of 12 µM and a GI50 [23] of 6.13 µM. It also gave a TGI [23] of 19.3 µM, a GI50 [24] of 2.25 µM and a TGI [24] of 7.52 µM. For the same compound, the GI50 [25] was 3.28 µM, the TGI [25] was 11.5 µM and the GI50 [26] was 6.45 µM. For the same compound, the TGI [26] was 20.1 µM, the GI50 [27] was 8.02 µM and the TGI [27] was 63.4 µM. It also gave a GI50 [28] of 16.1 µM, a TGI [28] of 31 µM and a GI50 [29] of 12.9 µM. It also gave a TGI [29] of 26.8 µM, a GI50 [30] of 11.9 µM and a TGI [30] of 25.7 µM. It also gave a GI50 [31] of 2000 nM, a TGI [31] of 4.58 µM and a GI50 [32] of 13.1 µM. It also gave a TGI [32] of 40.9 µM, a GI50 [33] of 1.81 µM and a TGI [33] of 3.54 µM. For the same compound, the GI50 [34] was 2.5 µM, the TGI [34] was 7.69 µM and the GI50 [35] was 1950 nM. The TGI [35] was 3.8 µM, the GI50 [36] was 8.24 µM and the TGI [36] was 46.7 µM. The GI50 [37] was 3.22 µM, the TGI [37] was 30.7 µM and the GI50 [38] was 1.93 µM. For the same compound, the TGI [38] was 3.53 µM, the GI50 [39] was 15.1 µM and the TGI [39] was 31.4 µM. It also gave a GI50 [40] of 5.71 µM, a TGI [40] of 21.5 µM and a GI50 [41] of 1.71 µM. It also gave a TGI [41] of 3.1 µM, a GI50 [42] of 14.1 µM and a TGI [42] of 29 µM. It also gave a GI50 [43] of 5.12 µM, a TGI [43] of 17.8 µM and a GI50 [44] of 5.13 µM. For the same compound, the TGI [44] was 19.8 µM, the GI50 [45] was 2640 nM and the TGI [45] was 9.4 µM. For the same compound, the GI50 [46] was 3.03 µM, the TGI [46] was 10.9 µM and the GI50 [47] was 2420 nM. It also gave a TGI [47] of 7.6 µM, a GI50 [48] of 1770 nM and a TGI [48] of 3.68 µM. For the same compound, the GI50 [49] was 12.2 µM, the TGI [49] was 30.9 µM and the GI50 [50] was 1800 nM. It also gave a TGI [50] of 3.44 µM, a GI50 [51] of 4.78 µM and a TGI [51] of 19.2 µM. The GI50 [52] was 3.62 µM, the TGI [52] was > 100 µM and the GI50 [53] was 3.39 µM. For the same compound, the TGI [53] was 12.8 µM, the GI50 [54] was 10.9 µM and the TGI [54] was 34.3 µM. It also gave a GI50 [55] of 11.5 µM, a TGI [55] of 37.7 µM and a GI50 [56] of 13.5 µM. The TGI [56] was 28.3 µM.
With `O=C1NC(=NC23CC4CC(CC(C4)C2)C3)N/C1=C\c1ccc2ncccc2c1` the GI50 [1] was 3450 nM, the TGI [1] was 28.1 µM and the GI50 [2] was 4.91 µM. For the same compound, the TGI [2] was 42.1 µM, the GI50 [57] was 3.95 µM and the TGI [57] was 26 µM. The GI50 [3] was 11.7 µM, the TGI [3] was > 100 µM and the GI50 [4] was 5.53 µM. For the same compound, the TGI [4] was > 100 µM, the GI50 [5] was 2.86 µM and the TGI [5] was 29.7 µM. The GI50 [7] was 1180 nM, the TGI [7] was > 100 µM and the GI50 [8] was 1.12 µM. For the same compound, the TGI [8] was > 100 µM, the GI50 [9] was 7.5 µM and the TGI [9] was > 100000 nM. For the same compound, the GI50 [58] was 218 nM, the TGI [58] was 26.6 µM and the GI50 [10] was 40.2 µM. The TGI [10] was > 100 µM, the GI50 [11] was 8 µM and the TGI [11] was 33.2 µM. For the same compound, the GI50 [12] was 3.59 µM, the TGI [12] was 35.2 µM and the GI50 [13] was 6.59 µM. The TGI [13] was > 100 µM, the GI50 [14] was 7.56 µM and the TGI [14] was 64.9 µM. The GI50 [15] was 19.4 µM, the TGI [15] was > 100 µM and the GI50 [16] was 16.9 µM. The TGI [16] was 64.7 µM, the GI50 [17] was 3080 nM and the TGI [17] was > 100 µM. For the same compound, the GI50 [18] was 8.17 µM, the TGI [18] was > 100 µM and the GI50 [19] was 4.15 µM. For the same compound, the TGI [19] was 34.7 µM, the GI50 [20] was 5.03 µM and the TGI [20] was > 100 µM. The GI50 [21] was 8.33 µM, the TGI [21] was > 100 µM and the GI50 [22] was 8.95 µM. For the same compound, the TGI [22] was 45 µM, the GI50 [23] was 12.5 µM and the TGI [23] was > 100 µM. For the same compound, the GI50 [24] was 4.39 µM, the TGI [24] was 41.9 µM and the GI50 [25] was 6.07 µM. For the same compound, the TGI [25] was > 100 µM, the GI50 [26] was 1.97 µM and the TGI [26] was 30.8 µM. It also gave a GI50 [27] of 16.3 µM, a TGI [27] of 80.8 µM and a GI50 [28] of 6.43 µM. The TGI [28] was > 100 µM, the GI50 [29] was 64.4 µM and the TGI [29] was > 100 µM. It also gave a GI50 [30] of 28.6 µM, a TGI [30] of 94.9 µM and a GI50 [31] of 2110 nM. For the same compound, the TGI [31] was > 100 µM, the GI50 [32] was 6.87 µM and the TGI [32] was 60.7 µM. For the same compound, the GI50 [33] was 10.2 µM, the TGI [33] was 26.8 µM and the GI50 [34] was 6.82 µM. The TGI [34] was 51.2 µM, the GI50 [35] was 3950 nM and the TGI [35] was > 100 µM. For the same compound, the GI50 [59] was 11 µM, the TGI [59] was > 100 µM and the GI50 [36] was 2.9 µM. For the same compound, the TGI [36] was 34.3 µM, the GI50 [37] was 15 µM and the TGI [37] was 64.2 µM. For the same compound, the GI50 [38] was 22.8 µM, the TGI [38] was > 100 µM and the GI50 [39] was 66.1 µM. For the same compound, the TGI [39] was > 100 µM, the GI50 [40] was 5.17 µM and the TGI [40] was > 100 µM. It also gave a GI50 [41] of 7.86 µM, a TGI [41] of 29.5 µM and a GI50 [42] of 6.56 µM. The TGI [42] was > 100 µM, the GI50 [43] was 3.38 µM and the TGI [43] was 15.2 µM. For the same compound, the GI50 [44] was 4.09 µM, the TGI [44] was 26.2 µM and the GI50 [45] was 3090 nM. For the same compound, the TGI [45] was 27.3 µM, the GI50 [46] was 4.98 µM and the TGI [46] was > 100 µM. It also gave a GI50 [47] of 2330 nM, a TGI [47] of 12.3 µM and a GI50 [48] of 3410 nM. It also gave a TGI [48] of 16 µM, a GI50 [49] of 4.09 µM and a TGI [49] of 18.6 µM. It also gave a GI50 [50] of 2800 nM, a TGI [50] of 22.7 µM and a GI50 [51] of 5.58 µM. The TGI [51] was > 100 µM, the GI50 [52] was 3.22 µM and the TGI [52] was 19.1 µM. The GI50 [53] was 12.4 µM, the TGI [53] was > 100 µM and the GI50 [54] was 6.03 µM. For the same compound, the TGI [54] was > 100 µM, the GI50 [55] was 25.9 µM and the TGI [55] was > 100 µM. For the same compound, the GI50 [56] was 2.35 µM and the TGI [56] was 10 µM.
